# US20070191324A1, “Methods for treatment or prophylaxis of aldosterone-mediated pathogenic effects in a subject using an epoxy-steroidal aldosterone antagonist” (priority 1999, published 2007)
# Experiments:
# [1] = test system: captopril-treated saline-drinking SHRSP; test: Angiotensin II-induced renal damage in captopril-treated saline-drinking SHRSP, Protocol 2 (Example A-8); assay type: in vivo, rat (SHRSP/A3N)
# Experimental: Animals. Studies were conducted in accordance with institutional guidelines using male SHRSP/A3N (generations F-75 to F-78), n=37, from our local colony. These animals were bred from NIH stock, derived from the SHRSP/A3N substrain described originally by Okamoto and coworkers (Okamoto K et al. Circ. Res. 34 and 35 (suppl I):I-143-I-153.). All animals were housed in a room maintained on a 12:12-h light:dark-cycle and an ambient temperature of 22±1° C. in the Animal Care Facility at New York Medical College. Rats were weaned at 4 weeks of age and allowed free access to Purina Lab Chow 5001 (Ralston Purina, St. Louis, Mo.) and tap water until the initiation of experimental protocols.
# SHRSP were placed on Stroke-Prone Rodent Diet (#39-288, Zeigler Bros Inc., Gardners, Pa.) and 1% NaCl drinking solution ad libitum starting at 8.3 weeks of age. […] Animals were handled and weighed daily. Urine samples were collected for the assessment of proteinuria. Systolic blood pressure and heart rate were measured each week. After 2 weeks of treatment, animals were decapitated, trunk blood was collected into chilled EDTA tubes, and the kidneys were removed, blotted dry, and immediately weighed. Coronal sections of kidney were fixed and later processed for light microscopic evaluation.
# Assays and Analyses. Systolic blood pressure and heart rate of awake animals were measured by tail-cuff plethysmography using a Natsume KN-210 manometer and tachometer (Peninsula Laboratories Inc., Belmont, Calif.). Rats were warmed at 37° C. for 10 min and allowed to rest quietly in a Lucite chamber before measurement of blood pressure. Measurements of urine volume were made gravimetrically. Urinary protein concentration was determined by the sulfosalicylic acid turbidity method. Plasma aldosterone was measured by radioimmunoassay using ^125I-aldosterone as a tracer (Coat-a Count Aldosterone, Diagnostic Products Co., Los Angeles, Calif.).
# Histology. Kidneys were preserved in 10% phosphate-buffered formalin. Coronal sections (2-3 μm) were stained with hematoxylin and eosin and examined by light microscopy in a blinded fashion as previously described (Stier C T et al. J Pharmacol Exp Ther (1992) 260:1410-1415). Glomerular damage was categorized as ischemic or thrombotic. Ischemic lesions were defined as retraction of glomerular capillary tufts with or without appreciable mesangiolysis. Glomerular thrombotic lesions were defined as any one of a combination of the following: segmental to global fibrinoid necrosis, focal thrombosis of glomerular capillaries, swelling and proliferation of intracapillary (endothelial and mesangial) and/or extracapillary cells (crescents), and expansion of reticulated mesangial matrix with or without significant hypercellularity. […] Vascular thrombotic lesions were defined as any one or a combination of the following: mural fibrinoid necrosis, extravasation and fragmentation of red blood cells, and luminal and/or mural thrombosis. Proliferative arteriopathy was characterized by proliferation of markedly swollen myointimal cells with swollen round to ovoid vesicular nuclei surrounded by mucinous extracellular matrix (“onion skinning”) often resulting in nodular thickening. Vascular damage was expressed as the number of arteries and arterioles with lesions per 100 glomeruli. The presence of casts and tubular (ischemic) retraction and simplification was assessed semiquantitatively.
# Statistical Analysis. Significant effects with respect to treatment and time were determined by two-way analysis of variance. Data with only one grouping variable were analyzed statistically by Student's unpaired t tests. When more than two groups were compared, one-way analysis of variance was performed followed by the post-hoc Newman-Keul's multiple comparison test. Data were analyzed using version 2.01 of the GraphPad Prism statistical software package (GraphPad Software Inc., San Diego, Calif.). P<0.05 was considered statistically significant.
# [2] = test system: patients with hypertension; test: Dose-ranging study of eplerenone vs placebo and spironolactone in hypertension (Examples A-14, D-1); assay type: in vivo, human
# Experimental: A multicenter, randomized, double-blind, parallel group study was conducted in patients with hypertension. […] The study consisted of a two-week pretreatment period for completion of screening procedures and discontinuation of any current antihypertensive medication(s). The screening period was followed by a four-week single-blind placebo lead-in treatment period. Randomization was followed by an eight-week double-blind active or placebo treatment period. The primary efficacy measure was the change from baseline in cuff diastolic blood pressure measured at trough as compared to placebo. Secondary efficacy measures included changes in cuff assessed trough systolic blood pressure and changes in average 24-hour diastolic and systolic blood pressure assessed by ambulatory blood pressure monitoring. Safety was assessed by conducting routine clinical lab tests, physical exams, ECGs, and monitoring for adverse events. […] The adjusted mean change in blood pressure (mm Hg) from baseline to final visit is described in Table […].
# hypertensive patients = test: Eplerenone vs. amlodipine, ambulatory blood pressure monitoring, 16 weeks (Example D-12); assay type: in vivo, human
# From the text: This was a multicenter, randomized, double-blind, active-controlled, placebo run-in, parallel group study. […] If symptomatic hypotension occurred at Week 2 or Weeks 4, 6, 8, or 12 and the patient was on the lowest dose level (Dose Level 1), the patient was to be withdrawn. Study assessments at protocol-specified timepoints included BP, heart rate, ABPM, Holter recording, clinical laboratory analyses including serum potassium levels, concomitant medications. Throughout the study, safety was assessed by routine clinical laboratory analyses, vital signs, physical examinations, 12-lead ECG, and monitoring of adverse events.
# [3] = test system: saline-loaded adrenalectomized rats treated with aldosterone; test: Antimineralocorticoid activity in saline-loaded adrenalectomized rats treated with aldosterone (Example A-2); assay type: in vivo
# Experimental: Methods: The antimineralocorticoid pharmacological activity was determined in saline-loaded adrenalectomized rats treated with aldosterone. […] Urinary sodium, potassium and water excretion were measured.
# [4] = test system: saline-hydrated conscious dogs treated with aldosterone; test: Antimineralocorticoid action in saline-hydrated conscious dogs treated with aldosterone (Example A-2); assay type: in vivo; details: aldosterone i.v. infusion; antagonist 10 mg/kg orally
# [5] = captopril 50 mg/kg/d, angiotensin II 25 ng/min, eplerenone 100 mg/kg/d, 2 weeks
compound,measurement,setting,value
"COC(=O)[C@@H]1CC2=CC(=O)CC[C@]2(C)[C@@]23O[C@@H]2C[C@@]2(C)[C@@H](CC[C@@]24CCC(=O)O4)[C@H]13 [Eplerenone, Pregn-4-ene-7,21-dicarboxylic acid, 9,11-epoxy-17-hydroxy-3-oxo-, γ-lactone, methyl ester, (7α, 11α, 17β)-]","Glomerular damage, Thrombotic",[1]; [5],1.0 ± 0.3 lesions/100 glomeruli
same,plasma aldosterone concentration,[1]; [5],231 ± 37 pg/mL
same,renal damage,"[1]; captopril + angiotensin II 25 ng/min, with eplerenone 100 mg/kg/d or vehicle",3±1%
same,gynecomastia,"[2]; 50-400 mg daily, 8 weeks",no reports of gynecomastia
same,safety and tolerability,"[2]; 50-400 mg daily, QD or divided doses",safe and well tolerated
same,DBP and SBP vs. placebo,"[2]; wide range of doses, regardless of assessment method (FIG. D-1, D-2)",significant reductions
same,"anti-hypertensive effect, mean 24 hour systolic ABPM","hypertensive patients; eplerenone 50-200 mg, amlodipine 2.5-10 mg, 16 weeks",comparable
same,safety and tolerability,hypertensive patients; in vivo,safe and well tolerated
same,Urinary Na/K ± SEM,[3]; aldosterone & antagonist 1 mg/kg by gavage,2.53 ± 0.23
same,Urinary Na/K ± SEM,[3]; aldosterone & antagonist 3 mg/kg by gavage,4.08 ± 0.26
same,Urinary Na/K ± SEM,[3]; aldosterone & antagonist 10 mg/kg by gavage,4.11 ± 0.27
same,Na/K Ratio,[4],2.1
same,Urinary Excretion Potassium,[4],11.9 ± 1 mmol/2 h
same,Urinary Excretion Sodium,[4],24.4 ± 3 mmol/2 h
